These results are taken from article PMC6010047, “Design, synthesis and biological evaluation of novel hydroxy-phenyl-1H-benzimidazoles as radical scavengers and UV-protective agents” (Journal of Enzyme Inhibition and Medicinal Chemistry, 2017).

“Also recorded” adds a separate entry of the source.

Series [1] is described as follows: Photochemiluminescence (PCL) method, ACL kit. It is filed as biochemical. As to conditions: pure compound; Trolox equivalents; mean ± SE of three experiments. The method, then:
PCL assay, based on the methodology of Popov and Lewin[23], was used to measure the antioxidant activity of synthesized compounds with a Photochem® apparatus (Analytik Jena, Leipzig, Germany) against superoxide anion radicals generated from luminol, a photosensitizer, when exposed to UV light (Double Bore® phosphor lamp, output 351 nm, 3 mWatt/cm^2). The antioxidant activity was measured using ACL (Antioxidant Capacity of Liposoluble substance) kit provided by the manufacturer designed to measure the antioxidant activity of lipophilic compounds[24]. […] The areas under the curves were calculated using the PCLsoft control and analysis software. […] This inhibition was used as a parameter for quantification and related to the decrease in the integral of PCL intensities caused by varying concentrations of Trolox. The observed inhibition of the signal was plotted against the concentration of Trolox added to the assay medium. The concentration of the added tested compounds was such that the generated luminescence during the 180-s sampling interval fell within the limits of the standard curve. The antioxidant assay was carried out in triplicate for each sample, and 20 μL of the diluted compound in HPLC-grade methanol (ACL) was sufficient to correspond to the standard curve.

A short description of series [2]: Photostability of formulations under solar simulator, HPLC. Conditions: 3% formulation; for Residual product (photostability): 2 mg/cm^2, solar simulator 1 h, HPLC. The series is classed as physicochemical. How it is done: HPLC analysis was performed using an Agilent 1100 Series HPLC System equipped with a G1315A DAD, and with a Hydro-RP C18 Synergi 80 Å column (4.6 × 150 mm, 4 μm) from Phenomenex, maintained at 25 °C during all the time of the analysis. The mobile phase consisted of water (0.01 M H3PO4) (solvent A) and acetonitrile (0.01 M H3PO4) (solvent B). • PBSA and 3: the determination was carried out in isocratic condition, A: 91%/B: 9%. Separation was monitored with absorbance detection at λmax of the molecule ±8 nm. The flow rate was 1.0 mL/min. • […]: the determination was carried out in isocratic condition, A: 84%/B: 16%. Separation was monitored with absorbance detection at λmax of the molecule ±8 nm. The flow rate was 1.0 mL/min
The solar simulator emission was maintained at 500 W/m^2. A portion of cosmetic formulation containing the sunscreen molecule (3%, w/w) was transferred onto the bottom of a beaker to gain a cosmetic mount of 2 mg/cm^2 and then was irradiated for 1 h with the solar simulator. After irradiation the beaker was removed and its content quantitatively transferred into a 50 mL calibrated flask with methanol and the remaining sunscreen concentration was determined by HPLC as described above. All samples were protected from light both before and after irradiation, the degree of photodegradation was evaluated by comparing the areas of the irradiated samples, with those of the unirradiated preparations.
Stability and photostability tests were performed only on compounds that as provided with the best antioxidant capacity together with a good photoprotection activity (i.e. 3, and 12). At first, the effective concentration of filtering molecules was verified in the formulation by HPLC. Samples of the formulations (2 mg/cm^2) were spread on a PMMA plate, for each compound including PBSA, and placed under a solar simulator for one hour before repeating HPLC analysis.

Series [3] can be described thus: In vitro evaluation of filtering parameters of formulations on PMMA plates (Diffey and Robson). Conditions: for SPF / UVA/UVB / UVAPF / λc (critical wavelength): 3% (w/w) in O/W formulation, PMMA plates. From the text:
It was decided to use a standard formulation oil in water (O/W).
In vitro approaches consist in applying a thin film of sunscreen product on an artificial substrate and test, via spectrophotometric measures, the amount of UV radiation passing through the film. Several different artificial substrates are available for this type of analysis; the substrate should be as closed as possible to the physical characteristics of the skin. Among the substrates available for these purposes, the substrate used in this study to analyse the sunscreen products were PMMA plates. This substrate is easily handled and can be supplied with a reproducible roughness. WW5 PMMA plates have been purchased from Schonberg GmbH (Munich, Germany). The plates, used in this study, have an area of 25 cm^2 and standardized […] roughness. Transmittance and absorbance measurements were carried out by a SHIMAZDU UV-2600 provided of integrating sphere ISR 2600 60 mm and coupled with a SPF determination software and a PMMA plate with approximately 15 μL of glycerin served as reference.
In order to evaluate possible activity as sun filters and antioxidants, suitable in the development of novel class of dualistic sunscreens, the synthesized molecules were included at the concentration of 3% (w/w) in a topical formulation. To this end standard oil in water (O/W) formulation was devised, taking into account the absence of any UV filtering and/or antioxidant molecule, in order to obtain a reference formulation. It was not possible to analyze compound 7 in the formulation because of high instability (phase separation induced by 7). Formulations containing the active ingredients were tested for their SPF efficacy by the in vitro method derived from Diffey and Robson[32], in comparison with the same formulation containing the reference PBSA.
This method is based on the measure of spectral transmission of ultraviolet radiation, with and without the sunscreen applied, through an irregular substrate that simulates the skin surface and permits transmission of UV radiation. Although with some limitation, the test is used to predict SPF in vivo and to screen the filtering activity of new molecules that cannot be tested by in vivo because of lacking of more data concerning safety. The critical wavelength (λc) for the test product is defined as that wavelength where the area under the absorbance spectrum for the irradiated product from 290 nm to λc is 90% of the integral of the absorbance spectrum from 290 nm to 400 nm. Critical wavelength value of greater than 370 nm is necessary, in order to satisfy requirements for broad-spectrum UVB/UVA protection and associated labeling. Polymethylmethacrylate plates (PMMA) with a specific roughness were a satisfactory substrate for this method, because they are UV-transparent, nonfluorescent, photostable and inert to all potential sunscreen formulation ingredients. Table 3 lists the data obtained for the model formulation containing the synthesized compounds. These parameters are necessary to evaluate whether a sunscreen fulfills the requirements for efficacy, and they are SPF, UVA protection factor (UVAPF), UVA/UVB ratio and critical wavelength.
A set of model formulations was prepared: an oil-in-water emulsion (O/W), without sunscreen molecules (Ref. A, Figure 5), prepared as reference formulation; two formulations containing PBSA or oxisol (12) at 3% were prepared (Ref. C and B, respectively, Figure 5), in order to evaluate the filter properties of oxisol (12). Moreover, as stated earlier, SPF booster properties were assayed on other four formulations including a mix of filters with a theoretical SPF value of 15 and 30, adding 3% of oxisol (12) or PBSA (Ref. E, F, G, H, Figure 5). […]

Series [4] in a line: 1,1-Diphenyl-2-picryl-hydrazyl radical (DPPH) assay. It is filed as biochemical. As to conditions: Trolox equivalents; mean ± SE of three experiments. How it is done:
To 1.5 mL DPPH methanolic solution (0.5 mM) was added 0.750 mL of sample solution proper diluted. Samples absorbance measurements were evaluated with a UV-VIS spectrophotometer (Thermo Spectronic Helios γ, Cambridge, UK) at fixed wavelength of 517 nm. Blank sample was prepared adding methanol to DPPH solution and Trolox was used as standard reference to achieve a calibration curve. The radical-scavenging activity is expressed as inhibition ratio of initial concentration of DPPH radical and is calculated according to the formula: Inhibition percentage (Ip) = [(AB-As)/AB]·100; where AB and As are, respectively, the absorbance values of blank reaction and of the tested sample[25].
A general note: Loss of DPPH colour is used to gauge radical scavenging.

`O=S(=O)(O)c1ccc2[nH]c(-c3ccc(O)c(O)c3)nc2c1` [Compound 3, 2-(3,4-Dihydroxy-phenyl)-1H-benzimidazole-5-sulfonic acid]: the PCL in series [1] is 22,838 ± 836,26 μmolTrolox/mmol. In addition, in series [2], the “Residual product (photostability)” value is given as 94.9% ± 0.8%. In series [3], the SPF stood at 9.83 ± 0.64, the UVA/UVB was 0.74 ± 0.04, the UVAPF is given as 3.63 ± 0.23 and the “λc (critical wavelength)” value is 358 nm. For the same molecule, the DPPH in series [4] worked out at 2145.31 ± 45.8 μmolTrolox/mmol.
For the molecule `O=C(O)c1ccc2[nH]c(-c3ccc(O)c(O)c3)nc2c1` [Compound 12, 2-(3,4-Dihydroxy-phenyl)-1H-benzimidazole-5-carboxylic acid], in series [1], the PCL is reported as 13174.31 ± 240.68 μmolTrolox/mmol. For the same molecule, in series [2], the “Residual product (photostability)” value is listed as 98.4% ± 0.9%. Further, the “degradation rate (photostability)” value in series [2] (solar simulator 1 h) was “less than 2%”. Also, in series [3], the SPF worked out at 2.21 ± 0.17, the UVA/UVB stood at 1.00 ± 0.04, the UVAPF was 1.88 ± 0.12 and the “λc (critical wavelength)” value is given as 370 nm. Moreover, the “SPF of emulsion (Figure 5)” value in series [3] (O/W emulsion with 3% of the molecule only) is recorded as “does not present an appreciable value of SPF”. The DPPH in series [4] is recorded as 1771.82 ± 84.75 μmolTrolox/mmol.
Consider `O=S(=O)(O)c1ccc2[nH]c(-c3ccccc3)nc2c1` [PBSA, 2-phenyl-1H-benzimidazole-5-sulfonic acid, reference compound], for which the PCL result in series [1] is “devoided of any activity; also recorded: < LOQ^a”. In addition, the “Residual product (photostability)” value in series [2] is given as 96.7% ± 1.8%. In series [3], the SPF is listed as 4.56 ± 1.09, the UVA/UVB is on record as 0.26 ± 0.05, the UVAPF came out at 1.04 ± 0.06 and the “λc (critical wavelength)” value worked out at 333 nm. For the same molecule, in series [4], the DPPH result is given as “devoided of any activity; also recorded: < LOQ^a”.
